From patent US20200361895A1, “NOVEL SULFONAMIDE CARBOXAMIDE COMPOUNDS” (Inflazome Limited, priority 2017, published 2020)
Structures can show the parent of a compound that is named as a salt.

What was measured:
NLRP3 [1] = target: T1, NLRP3 (Homo sapiens, UniProt Q96P20); assay: Human whole blood IL1β release assay (LPS + nigericin, AlphaLisa IL-1β; HWB IC50); format: cell-based; parameters: Human whole blood in Li-heparin tubes was obtained from healthy donors from a volunteer donor panel; from tissue; host or cells: human whole blood from healthy donors; settings: IL-1β release
T1 sequence (Q96P20 whole entry): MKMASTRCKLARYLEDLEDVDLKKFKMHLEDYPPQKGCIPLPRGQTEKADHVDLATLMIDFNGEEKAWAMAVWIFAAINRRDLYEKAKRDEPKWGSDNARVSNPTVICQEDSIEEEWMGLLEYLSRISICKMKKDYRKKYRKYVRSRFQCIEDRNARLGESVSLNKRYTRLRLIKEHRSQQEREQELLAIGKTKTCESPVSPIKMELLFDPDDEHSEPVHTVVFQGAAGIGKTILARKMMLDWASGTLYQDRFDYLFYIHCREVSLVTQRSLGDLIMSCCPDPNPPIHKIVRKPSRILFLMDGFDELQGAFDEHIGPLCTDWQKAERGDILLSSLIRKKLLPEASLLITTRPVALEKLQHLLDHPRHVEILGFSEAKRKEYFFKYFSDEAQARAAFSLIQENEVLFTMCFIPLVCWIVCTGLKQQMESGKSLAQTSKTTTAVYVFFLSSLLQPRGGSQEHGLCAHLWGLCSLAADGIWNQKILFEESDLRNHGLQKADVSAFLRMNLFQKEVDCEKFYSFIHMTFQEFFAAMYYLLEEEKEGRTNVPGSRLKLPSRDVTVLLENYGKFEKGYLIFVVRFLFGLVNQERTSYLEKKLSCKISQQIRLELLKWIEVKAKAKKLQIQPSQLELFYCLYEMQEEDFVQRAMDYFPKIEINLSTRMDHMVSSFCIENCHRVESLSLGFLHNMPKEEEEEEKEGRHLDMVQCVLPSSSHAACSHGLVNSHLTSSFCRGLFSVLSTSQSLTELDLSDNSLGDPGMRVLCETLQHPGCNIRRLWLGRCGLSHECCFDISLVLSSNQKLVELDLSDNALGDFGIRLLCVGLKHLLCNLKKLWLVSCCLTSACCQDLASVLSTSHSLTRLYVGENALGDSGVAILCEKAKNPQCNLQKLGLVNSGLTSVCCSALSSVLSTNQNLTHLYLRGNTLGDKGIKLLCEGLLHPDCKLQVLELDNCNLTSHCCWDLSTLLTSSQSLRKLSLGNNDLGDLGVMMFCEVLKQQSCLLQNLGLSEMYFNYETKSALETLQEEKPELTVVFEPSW
Method: For systemic delivery, the ability to inhibit NLRP3 when the compounds are present within the bloodstream is of great importance. For this reason, the NLRP3 inhibitory activity of a number of compounds in human whole blood was investigated in accordance with the following protocol.
Human whole blood in Li-heparin tubes was obtained from healthy donors from a volunteer donor panel. • 1. Plate out 80 μl of whole blood containing 1 μg/ml of LPS in 96-well, clear bottom cell culture plate (Corning #3585) • 2. Add 10 μl compound (8 points half-log dilution with 10 μM top dose) or vehicle (DMSO 0.1% FAC) to the appropriate wells • 3. Incubate for 3 hrs at 37° C., 5% CO2 • 4. Add 10 μl nigericin (Sigma #N7143) (10 μM FAC) to all wells • 5. Incubate for 1 hr at 37° C., 5% CO2 • 6. At the end of the incubation period, spin plates at 300×g for 5 mins to pellet cells and remove 20 μl of supernatant and add to 96-well v-bottom plates for IL-1β analysis (note: these plates containing the supernatants can be stored at −80° C. to be analysed at a later date) • 7. IL-1β was measured according to the manufacturer protocol (Perkin Elmer-AlphaLisa IL-1 Kit AL220F-5000) • 8. IC50 data is fitted to a non-linear regression equation (log inhibitor vs response-variable slope 4-parameters)

NLRP3 [2] = target: T1, NLRP3; assay: THP-1 cells pyroptosis assay (LPS + nigericin, resazurin readout; THP IC50); format: cell-based; parameters: Seed THP-1 cells (25,000 cells/well) containing 1.0 μg/ml LPS in 40 μl of RPMI medium; host or cells: THP-1 cells
Summary of the method: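 Human THP-1 cells, 25,000/well in serum-free RPMI with 1 μg/ml LPS, treated 3 hrs at 37° C with compound (8-point half-log, 10 μM top, 0.1% DMSO), then 5 μM nigericin 1 hr. Viability by 100 μM resazurin fluorescence after 1-2 hrs; IC50 by 4-parameter fit.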

| SMILES | IC50 (NLRP3 [1]) [nM] | IC50 (NLRP3 [2]) [nM] |
| --- | --- | --- |
| CN(C)CCn1ccc(S(=O)(=O)NC(=O)Nc2c(-c3cccnc3)cc(F)c3c2CCC3)n1 [Example 62, 1-(2-(Dimethylamino)ethyl)-N-((7-fluoro-5-(pyridin-3-yl)-2,3-dihydro-1H-inden-4-yl)carbamoyl)-1H-pyrazole-3-sulfonamide] | ≤ 5000 | ≤ 500 |
| COc1cc(-c2cc(F)c3c(c2NC(=O)NS(=O)(=O)c2ccn(CCN(C)C)n2)CCC3)ccn1 [Example 63, 1-(2-(Dimethylamino)ethyl)-N-((7-fluoro-5-(2-methoxypyridin-4-yl)-2,3-dihydro-1H-inden-4-yl)carbamoyl)-1H-pyrazole-3-sulfonamide] | ≤ 500 | ≤ 500 |
| CCn1nc(S(=O)(=O)NC(=O)Nc2c(-c3cccnc3)cc(F)c3c2CCC3)cc1CN(C)C [Example 65, 5-((Dimethylamino)methyl)-1-ethyl-N-((7-fluoro-5-(pyridin-3-yl)-2,3-dihydro-1H-inden-4-yl)carbamoyl)-1H-pyrazole-3-sulfonamide] | ≤ 500 | ≤ 500 |
| CCn1nc(S(=O)(=O)NC(=O)Nc2c(-c3ccnc(OC)c3)cc(F)c3c2CCC3)cc1CN(C)C [Example 66, 5-((Dimethylamino)methyl)-1-ethyl-N-((7-fluoro-5-(2-methoxypyridin-4-yl)-2,3-dihydro-1H-inden-4-yl)carbamoyl)-1H-pyrazole-3-sulfonamide] | ≤ 500 | ≤ 500 |
| CC(C)N1CC(S(=O)(=O)NC(=O)Nc2c(-c3ccncc3)cc(F)c3c2CCC3)C1 [Example 77, N-((7-Fluoro-5-(pyridin-4-yl)-2,3-dihydro-1H-inden-4-yl)carbamoyl)-1-isopropylazetidine-3-sulfonamide] | ≤ 1000 | ≤ 500 |
| O=C(Nc1c(-c2ccncc2)cc(F)c2c1CCC2)NS(=O)(=O)C1CN(C2CCC2)C1 [Example 81, 1-Cyclobutyl-N-((7-fluoro-5-(pyridin-4-yl)-2,3-dihydro-1H-inden-4-yl)carbamoyl)azetidine-3-sulfonamide] | ≤ 1000 | ≤ 500 |
| CN(C)c1cncc(S(=O)(=O)NC(=O)Nc2c(-c3ccncc3)cc(F)c3c2CCC3)n1 [Example 105, 6-(Dimethylamino)-N-((7-fluoro-5-(pyridin-4-yl)-2,3-dihydro-1H-inden-4-yl)carbamoyl)pyrazine-2-sulfonamide] | ≤ 1000 | ≤ 500 |
| CC(C)c1cc(F)cc(-c2ccnc(C#N)c2)c1NC(=O)NS(=O)(=O)c1cnc(N(C)C)cn1 [Example 106, N-((2-(2-Cyanopyridin-4-yl)-4-fluoro-6-isopropylphenyl)carbamoyl)-5-(dimethylamino)pyrazine-2-sulfonamide] | ≤ 5000 | ≤ 500 |
| CN(C)c1cnc(S(=O)(=O)NC(=O)Nc2c(-c3ccncc3)cc(F)c3c2CCC3)cn1 [Example 109, 5-(Dimethylamino)-N-((7-fluoro-5-(pyridin-4-yl)-2,3-dihydro-1H-inden-4-yl)carbamoyl)pyrazine-2-sulfonamide] | ≤ 5000 | ≤ 500 |
| Cc1cc(C)nc(S(=O)(=O)NC(=O)Nc2c(-c3ccnc(C#N)c3)cc(F)cc2C(C)C)n1 [Example 114, N-((2-(2-Cyanopyridin-4-yl)-4-fluoro-6-isopropylphenyl)carbamoyl)-4,6-dimethylpyrimidine-2-sulfonamide] | ≤ 5000 | ≤ 500 |
| Cc1cc(C)nc(S(=O)(=O)NC(=O)Nc2c(-c3ccncc3)cc(F)c3c2CCC3)n1 [Example 117, N-((7-Fluoro-5-(pyridin-4-yl)-2,3-dihydro-1H-inden-4-yl)carbamoyl)-4,6-dimethylpyrimidine-2-sulfonamide] | ≤ 1000 | ≤ 500 |
| COc1cc(-c2cc(F)cc(C(C)C)c2NC(=O)NS(=O)(=O)c2cc(N(C)C)cnn2)ccn1 [Example 119, 5-(Dimethylamino)-N-((4-fluoro-2-isopropyl-6-(2-methoxypyridin-4-yl)phenyl)carbamoyl) pyridazine-3-sulfonamide] | ≤ 5000 | ≤ 500 |
| CN(C)c1cnnc(S(=O)(=O)NC(=O)Nc2c(-c3ccncc3)cc(F)c3c2CCC3)c1 [Example 121, 5-(Dimethylamino)-N-((7-fluoro-5-(pyridin-4-yl)-2,3-dihydro-1H-inden-4-yl)carbamoyl) pyridazine-3-sulfonamide] | ≤ 1000 | ≤ 500 |

Second part, the compound after the results:

| IC50 (NLRP3 [1]) [nM] | IC50 (NLRP3 [2]) [nM] | SMILES |
| --- | --- | --- |
| ≤ 1000 | ≤ 500 | CCn1nc(S(=O)(=O)NC(=O)Nc2c(-c3cccc(C#N)c3)ccc3c2CCC3)cc1CN(C)C [Example 68, N-((5-(3-Cyanophenyl)-2,3-dihydro-1H-inden-4-yl)carbamoyl)-5-((dimethylamino)methyl)-1-ethyl-1H-pyrazole-3-sulfonamide] |
| ≤ 500 | ≤ 500 | COc1cc(-c2ccc3c(c2NC(=O)NS(=O)(=O)c2ccc(=O)n(C(C)C)c2)CCC3)ccn1 [Example 70, 1-Isopropyl-N-((5-(2-methoxypyridin-4-yl)-2,3-dihydro-1H-inden-4-yl)carbamoyl)-6-oxo-1,6-dihydropyridine-3-sulfonamide] |
| ≤ 1000 | ≤ 500 | CC(C)n1cc(S(=O)(=O)NC(=O)Nc2c(-c3ccnc(C#N)c3)ccc3c2CCC3)ccc1=O [Example 71, N-((5-(2-Cyanopyridin-4-yl)-2,3-dihydro-1H-inden-4-yl)carbamoyl)-1-isopropyl-6-oxo-1,6-dihydropyridine-3-sulfonamide, sodium salt] |
| ≤ 1000 | ≤ 500 | CC(C)n1cc(S(=O)(=O)NC(=O)Nc2c(-c3ccnc(C#N)c3)ccc3c2CCC3)ncc1=O [Example 72, N-((5-(2-Cyanopyridin-4-yl)-2,3-dihydro-1H-inden-4-yl)carbamoyl)-4-isopropyl-5-oxo-4,5-dihydropyrazine-2-sulfonamide, sodium salt] |
| ≤ 500 | ≤ 500 | COc1cc(-c2ccc3c(c2NC(=O)NS(=O)(=O)c2cn(C(C)C)c(=O)cn2)CCC3)ccn1 [Example 73, 4-Isopropyl-N-((5-(2-methoxypyridin-4-yl)-2,3-dihydro-1H-inden-4-yl)carbamoyl)-5-oxo-4,5-dihydropyrazine-2-sulfonamide, partial ammonium salt] |
| ≤ 500 | ≤ 500 | COc1cc(-c2ccc3c(c2NC(=O)NS(=O)(=O)C2CN(C(C)C)C2)CCC3)ccn1 [Example 76, 1-Isopropyl-N-((5-(2-methoxypyridin-4-yl)-2,3-dihydro-1H-inden-4-yl)carbamoyl)azetidine-3-sulfonamide] |
| ≤ 1000 | ≤ 500 | CC(C)n1cc(S(=O)(=O)NC(=O)Nc2c(-c3ccncc3)cc(F)c3c2CCC3)ccc1=O [Example 91, N-((7-Fluoro-5-(pyridin-4-yl)-2,3-dihydro-1H-inden-4-yl)carbamoyl)-1-isopropyl-6-oxo-1,6-dihydropyridine-3-sulfonamide] |
| ≤ 1000 | ≤ 500 | COc1cc(-c2ccc3c(c2NC(=O)NS(=O)(=O)c2cnc(=O)n(C(C)C)c2)CCC3)ccn1 [Example 95, 1-Isopropyl-N-((5-(2-methoxypyridin-4-yl)-2,3-dihydro-1H-inden-4-yl)carbamoyl)-2-oxo-1,2-dihydropyrimidine-5-sulfonamide, sodium salt] |
| ≤ 5000 | ≤ 500 | COc1cc(-c2ccc3c(c2NC(=O)NS(=O)(=O)c2cnc(N(C)C)cn2)CCC3)ccn1 [Example 108, 5-(Dimethylamino)-N-((5-(2-methoxypyridin-4-yl)-2,3-dihydro-1H-inden-4-yl)carbamoyl)pyrazine-2-sulfonamide] |
| ≤ 500 | ≤ 500 | COc1cc(-c2ccc3c(c2NC(=O)NS(=O)(=O)c2nc(C)cc(C)n2)CCC3)ccn1 [Example 116, N-((5-(2-Methoxypyridin-4-yl)-2,3-dihydro-1H-inden-4-yl)carbamoyl)-4,6-dimethylpyrimidine-2-sulfonamide] |
| ≤ 1000 | ≤ 500 | CC(C)c1cc(F)cc(-c2ccnc(C#N)c2)c1NC(=O)NS(=O)(=O)c1cc(N(C)C)cnn1 [Example 118, N-((2-(2-Cyanopyridin-4-yl)-4-fluoro-6-isopropylphenyl)carbamoyl)-5-(dimethylamino)pyridazine-3-sulfonamide] |
| ≤ 5000 | ≤ 500 | COc1cc(-c2ccc3c(c2NC(=O)NS(=O)(=O)c2cc(N(C)C)cnn2)CCC3)ccn1 [Example 120, 5-(Dimethylamino)-N-((5-(2-methoxypyridin-4-yl)-2,3-dihydro-1H-inden-4-yl)carbamoyl) pyridazine-3-sulfonamide] |
